Measurements taken from PubChem BioAssay (NCI).
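Exposure lasted 48 hours, with cells grown in 96-well plates and compounds tested at five concentrations. GI50 = concentration required for 50% inhibition of growth. The concentration for full growth arrest is given as TGI.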

Columns and labels:
Assay in all cases: inhibition of tumour cell growth, NCI panel, 48 h
OVCAR-3 ovarian = test system: OVCAR-3 ovarian
RXF 393 renal = test system: RXF 393 renal
KM12 colon = test system: KM12 colon
SK-OV-3 ovarian = test system: SK-OV-3 ovarian
TK-10 renal = test system: TK-10 renal
CAKI-1 renal = test system: CAKI-1 renal
SK-MEL-2 melanoma = test system: SK-MEL-2 melanoma
SK-MEL-5 melanoma = test system: SK-MEL-5 melanoma
EKVX NSCLC = test system: EKVX NSCLC
NCI-H23 lung = test system: NCI-H23 lung
SW-620 colon = test system: SW-620 colon
UO-31 renal = test system: UO-31 renal
RPMI-8226 leukemia = test system: RPMI-8226 leukemia
A549 NSCLC = test system: A549 NSCLC
SN12C renal = test system: SN12C renal
HCT-15 colon = test system: HCT-15 colon
K-562 leukemia = test system: K-562 leukemia
CCRF-CEM leukemia = test system: CCRF-CEM leukemia
T-47D breast = test system: T-47D breast
IGROV1 ovarian = test system: IGROV1 ovarian
HOP-92 NSCLC = test system: HOP-92 NSCLC
PC-3 prostate = test system: PC-3 prostate
MALME-3M melanoma = test system: MALME-3M melanoma
MDA-MB-435 = test system: MDA-MB-435
M14 melanoma = test system: M14 melanoma
BT-549 breast = test system: BT-549 breast
SK-MEL-28 melanoma = test system: SK-MEL-28 melanoma
NCI-H460 lung = test system: NCI-H460 lung
HCT-116 colon = test system: HCT-116 colon
SR leukemia = test system: SR leukemia
HCC-2998 colon = test system: HCC-2998 colon
786-0 renal = test system: 786-0 renal
U251 CNS = test system: U251 CNS
HOP-62 NSCLC = test system: HOP-62 NSCLC
HL-60(TB) leukemia = test system: HL-60(TB) leukemia
COLO 205 colon = test system: COLO 205 colon
ACHN renal = test system: ACHN renal
NCI/ADR-RES ovarian = test system: NCI/ADR-RES ovarian
NCI-H226 lung = test system: NCI-H226 lung
MOLT-4 leukemia = test system: MOLT-4 leukemia
SF-539 CNS = test system: SF-539 CNS
UACC-257 melanoma = test system: UACC-257 melanoma
OVCAR-5 ovarian = test system: OVCAR-5 ovarian
UACC-62 melanoma = test system: UACC-62 melanoma
MDA-MB-231 breast = test system: MDA-MB-231 breast
LOX IMVI melanoma = test system: LOX IMVI melanoma
NCI-H522 lung = test system: NCI-H522 lung
MCF7 breast = test system: MCF7 breast
SNB-19 CNS = test system: SNB-19 CNS
SF-295 CNS = test system: SF-295 CNS
SF-268 CNS = test system: SF-268 CNS
A498 renal = test system: A498 renal
OVCAR-4 ovarian = test system: OVCAR-4 ovarian
DU-145 prostate = test system: DU-145 prostate
OVCAR-8 ovarian = test system: OVCAR-8 ovarian
HT29 colon = test system: HT29 colon
SNB-75 CNS = test system: SNB-75 CNS
HS 578T breast = test system: HS 578T breast

`Nc1nc2ccccc2c2c1S(=O)(=O)c1ccc(Cl)cc1C2=O` was tested, and the GI50 (OVCAR-3 ovarian) was 1.14 µM, the TGI (OVCAR-3 ovarian) was 3.33 µM and the GI50 (RXF 393 renal) was 0.784 µM. For the same compound, the TGI (RXF 393 renal) was 2.05 µM, the GI50 (KM12 colon) was 1.86 µM and the TGI (KM12 colon) was 13.3 µM. The GI50 (SK-OV-3 ovarian) was 6.9 µM, the TGI (SK-OV-3 ovarian) was 44.8 µM and the GI50 (TK-10 renal) was 1.93 µM. For the same compound, the TGI (TK-10 renal) was > 50 µM, the GI50 (CAKI-1 renal) was 1.59 µM and the TGI (CAKI-1 renal) was > 50 µM. For the same compound, the GI50 (SK-MEL-2 melanoma) was 2.27 µM, the TGI (SK-MEL-2 melanoma) was > 50 µM and the GI50 (SK-MEL-5 melanoma) was 2.02 µM. For the same compound, the TGI (SK-MEL-5 melanoma) was 30.9 µM, the GI50 (EKVX NSCLC) was 1.84 µM and the TGI (EKVX NSCLC) was > 50 µM. For the same compound, the GI50 (NCI-H23 lung) was 2.48 µM, the TGI (NCI-H23 lung) was > 50 µM and the GI50 (SW-620 colon) was 1.02 µM. It also gave a TGI (SW-620 colon) of 2.25 µM, a GI50 (UO-31 renal) of 1.21 µM and a TGI (UO-31 renal) of 9.38 µM. For the same compound, the GI50 (RPMI-8226 leukemia) was 0.719 µM, the TGI (RPMI-8226 leukemia) was 3.31 µM and the GI50 (A549 NSCLC) was 3.26 µM. The TGI (A549 NSCLC) was > 50 µM, the GI50 (SN12C renal) was 1.16 µM and the TGI (SN12C renal) was 4.54 µM. The GI50 (HCT-15 colon) was 0.812 µM, the TGI (HCT-15 colon) was 2.31 µM and the GI50 (K-562 leukemia) was 1.45 µM. The TGI (K-562 leukemia) was > 50 µM, the GI50 (CCRF-CEM leukemia) was 0.623 µM and the TGI (CCRF-CEM leukemia) was 4 µM. The GI50 (T-47D breast) was 1.24 µM, the TGI (T-47D breast) was > 50 µM and the GI50 (IGROV1 ovarian) was 1.7 µM. The TGI (IGROV1 ovarian) was > 50 µM, the GI50 (HOP-92 NSCLC) was 0.542 µM and the TGI (HOP-92 NSCLC) was 3.63 µM. The GI50 (PC-3 prostate) was 0.89 µM, the TGI (PC-3 prostate) was > 50 µM and the GI50 (MALME-3M melanoma) was 1.23 µM. For the same compound, the TGI (MALME-3M melanoma) was 4.25 µM, the GI50 (MDA-MB-435) was 1.65 µM and the TGI (MDA-MB-435) was > 50 µM. The GI50 (M14 melanoma) was 2.45 µM, the TGI (M14 melanoma) was 35.4 µM and the GI50 (BT-549 breast) was 1.91 µM. For the same compound, the TGI (BT-549 breast) was > 50 µM, the GI50 (SK-MEL-28 melanoma) was 2.09 µM and the TGI (SK-MEL-28 melanoma) was 14.1 µM. It also gave a GI50 (NCI-H460 lung) of 1.68 µM, a TGI (NCI-H460 lung) of 6.63 µM and a GI50 (HCT-116 colon) of 1.87 µM. For the same compound, the TGI (HCT-116 colon) was 32 µM, the GI50 (SR leukemia) was 0.917 µM and the TGI (SR leukemia) was > 50 µM. It also gave a GI50 (HCC-2998 colon) of 2.03 µM, a TGI (HCC-2998 colon) of 29.8 µM and a GI50 (786-0 renal) of 5.93 µM. The TGI (786-0 renal) was > 50 µM, the GI50 (U251 CNS) was 1.79 µM and the TGI (U251 CNS) was 18.3 µM. For the same compound, the GI50 (HOP-62 NSCLC) was 2.31 µM, the TGI (HOP-62 NSCLC) was > 50 µM and the GI50 (HL-60(TB) leukemia) was 1.39 µM. For the same compound, the TGI (HL-60(TB) leukemia) was 3.7 µM, the GI50 (COLO 205 colon) was 1.94 µM and the TGI (COLO 205 colon) was 6.85 µM. The GI50 (ACHN renal) was 1.38 µM, the TGI (ACHN renal) was > 50 µM and the GI50 (NCI/ADR-RES ovarian) was 1.46 µM. It also gave a TGI (NCI/ADR-RES ovarian) of 6.27 µM, a GI50 (NCI-H226 lung) of 2.14 µM and a TGI (NCI-H226 lung) of 17.3 µM. For the same compound, the GI50 (MOLT-4 leukemia) was 1.42 µM, the TGI (MOLT-4 leukemia) was 8.86 µM and the GI50 (SF-539 CNS) was 1.3 µM. The TGI (SF-539 CNS) was 3.62 µM, the GI50 (UACC-257 melanoma) was 1.96 µM and the TGI (UACC-257 melanoma) was > 50 µM. It also gave a GI50 (OVCAR-5 ovarian) of 1.42 µM, a TGI (OVCAR-5 ovarian) of 4.62 µM and a GI50 (UACC-62 melanoma) of 1.68 µM. The TGI (UACC-62 melanoma) was 24.8 µM, the GI50 (MDA-MB-231 breast) was 1.57 µM and the TGI (MDA-MB-231 breast) was > 50 µM. The GI50 (LOX IMVI melanoma) was 0.873 µM, the TGI (LOX IMVI melanoma) was 1.84 µM and the GI50 (NCI-H522 lung) was 0.86 µM. The TGI (NCI-H522 lung) was 2.2 µM, the GI50 (MCF7 breast) was 1.49 µM and the TGI (MCF7 breast) was > 50 µM. The GI50 (SNB-19 CNS) was 2.52 µM, the TGI (SNB-19 CNS) was > 50 µM and the GI50 (SF-295 CNS) was 2.22 µM. The TGI (SF-295 CNS) was > 50 µM, the GI50 (SF-268 CNS) was 1.83 µM and the TGI (SF-268 CNS) was > 50 µM. The GI50 (A498 renal) was 2.37 µM, the TGI (A498 renal) was 22.5 µM and the GI50 (OVCAR-4 ovarian) was 1.46 µM. The TGI (OVCAR-4 ovarian) was 10.8 µM, the GI50 (DU-145 prostate) was 2.13 µM and the TGI (DU-145 prostate) was > 50 µM. For the same compound, the GI50 (OVCAR-8 ovarian) was 1.54 µM, the TGI (OVCAR-8 ovarian) was > 50 µM and the GI50 (HT29 colon) was 1.63 µM. The TGI (HT29 colon) was 5.88 µM.
In the case of `O=C1CSC(c2ccccc2O)N1c1ccc(Oc2ccc(Cl)cc2)c(Cl)c1` (stereo not drawn), the TGI (OVCAR-3 ovarian) is reported as 62.4 µM, the TGI (KM12 colon) is reported as 35.7 µM and the TGI (SK-OV-3 ovarian) is reported as 47.9 µM. The TGI (TK-10 renal) was > 100 µM, the TGI (SNB-75 CNS) was 47.3 µM and the TGI (CAKI-1 renal) was 74 µM. The TGI (SK-MEL-2 melanoma) was 65.7 µM, the TGI (SK-MEL-5 melanoma) was 33.8 µM and the TGI (EKVX NSCLC) was 45.9 µM. The TGI (NCI-H23 lung) was 46.6 µM, the TGI (SW-620 colon) was > 100 µM and the TGI (UO-31 renal) was 20.7 µM. It also gave a TGI (RPMI-8226 leukemia) of 89.1 µM, a TGI (A549 NSCLC) of 49.3 µM and a TGI (SN12C renal) of 39.5 µM. The TGI (HCT-15 colon) was 46.9 µM, the TGI (K-562 leukemia) was > 100 µM and the TGI (CCRF-CEM leukemia) was 65.1 µM. It also gave a TGI (T-47D breast) of 46.8 µM, a TGI (IGROV1 ovarian) of 77.4 µM and a TGI (HOP-92 NSCLC) of 39.1 µM. It also gave a TGI (PC-3 prostate) of 60 µM, a TGI (MALME-3M melanoma) of 30.2 µM and a TGI (MDA-MB-435) of 69 µM. For the same compound, the TGI (M14 melanoma) was 76.9 µM, the TGI (BT-549 breast) was 34.9 µM and the TGI (SK-MEL-28 melanoma) was 57.4 µM. The TGI (NCI-H460 lung) was 43.6 µM, the TGI (HCT-116 colon) was 28.6 µM and the TGI (SR leukemia) was 40.2 µM. The TGI (HCC-2998 colon) was 40.4 µM, the TGI (786-0 renal) was 36.4 µM and the TGI (U251 CNS) was 39.5 µM. It also gave a TGI (HOP-62 NSCLC) of 42.3 µM, a TGI (HL-60(TB) leukemia) of 51.2 µM and a TGI (COLO 205 colon) of 35 µM. The TGI (ACHN renal) was 94 µM, the TGI (NCI/ADR-RES ovarian) was 48.4 µM and the TGI (NCI-H226 lung) was > 100 µM. For the same compound, the TGI (MOLT-4 leukemia) was 81 µM, the TGI (SF-539 CNS) was 32.9 µM and the TGI (UACC-257 melanoma) was 81.4 µM. It also gave a TGI (OVCAR-5 ovarian) of 81.8 µM, a TGI (UACC-62 melanoma) of 34.3 µM and a TGI (MDA-MB-231 breast) of 34.3 µM. It also gave a TGI (LOX IMVI melanoma) of 32.8 µM, a TGI (NCI-H522 lung) of 36.8 µM and a TGI (HS 578T breast) of 38 µM. It also gave a TGI (MCF7 breast) of 86.3 µM, a TGI (SNB-19 CNS) of 65 µM and a TGI (SF-295 CNS) of 34.5 µM. It also gave a TGI (SF-268 CNS) of 31.4 µM, a TGI (OVCAR-4 ovarian) of 66.1 µM and a TGI (DU-145 prostate) of 59.8 µM. It also gave a TGI (OVCAR-8 ovarian) of 74.6 µM and a TGI (HT29 colon) of 37.3 µM.
